{"source": "ChEMBL document CHEMBL3879906", "about": "(2013)", "key": {"Cardiac muscle cell [1]": {"system": "Cardiac muscle cell", "assay": "Increase in reverse rate-dependent action potential duration at 75% repolarization in human atrial myocytes at 0.5 to 2 Hz at 50 uM by whole cell patch clamp method", "assay_type": "functional, cell-based"}, "Cardiac muscle cell [2]": {"system": "Cardiac muscle cell", "assay": "Increase in reverse rate-dependent action potential duration at 50% repolarization in human atrial myocytes at 0.5 to 2 Hz at 50 uM by whole cell patch clamp method", "assay_type": "functional, cell-based"}, "Cardiac muscle cell [3]": {"system": "Cardiac muscle cell", "assay": "Increase in reverse rate-dependent action potential duration at 90% repolarization in human atrial myocytes at 0.5 to 2 Hz at 50 uM by whole cell patch clamp method", "assay_type": "functional, cell-based"}, "Cardiac muscle cell [4]": {"system": "Cardiac muscle cell", "assay": "Increase in action potential duration at 90% repolarization in human atrial myocytes at 0.5 to 2 Hz at 10 uM by whole cell patch clamp method", "assay_type": "functional, cell-based"}, "[5]": {"target": "T1, Voltage-gated potassium channel, IKs; KCNQ1(Kv7.1)/KCNE1(MinK) (Homo sapiens, UniProt P51787+P15382)", "T1 sequence (P51787 whole entry)": "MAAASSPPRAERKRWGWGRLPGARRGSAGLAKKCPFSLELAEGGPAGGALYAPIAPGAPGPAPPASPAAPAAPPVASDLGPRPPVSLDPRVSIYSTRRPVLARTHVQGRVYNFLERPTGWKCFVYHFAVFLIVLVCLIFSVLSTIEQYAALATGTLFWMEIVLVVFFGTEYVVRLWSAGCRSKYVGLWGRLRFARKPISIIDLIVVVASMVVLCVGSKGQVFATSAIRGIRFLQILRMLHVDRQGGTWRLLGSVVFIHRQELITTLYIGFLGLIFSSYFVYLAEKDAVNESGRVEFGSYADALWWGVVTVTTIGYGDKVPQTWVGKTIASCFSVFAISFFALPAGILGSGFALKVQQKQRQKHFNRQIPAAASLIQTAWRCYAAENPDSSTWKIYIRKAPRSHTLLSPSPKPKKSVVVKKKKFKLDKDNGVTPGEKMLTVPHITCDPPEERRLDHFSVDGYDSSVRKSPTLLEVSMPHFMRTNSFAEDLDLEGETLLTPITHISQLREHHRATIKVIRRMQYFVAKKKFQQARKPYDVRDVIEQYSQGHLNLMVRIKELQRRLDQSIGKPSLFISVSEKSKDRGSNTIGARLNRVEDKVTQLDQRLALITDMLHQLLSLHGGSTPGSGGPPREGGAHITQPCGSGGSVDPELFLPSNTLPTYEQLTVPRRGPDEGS", "assay": "Inhibition of human KCNQ1/KCNE1 expressed in HEK293 cells assessed as decrease in current amplitude at 30 uM by whole cell patch clamp method", "assay_type": "cell-based", "settings": "hek293, 30 µM"}, "Cardiac muscle cell [6]": {"system": "Cardiac muscle cell", "assay": "Prolongation of action potential duration in human atrial myocytes at 2 Hz at 5 to 10 uM by whole cell patch clamp method", "assay_type": "functional, cell-based"}, "[7]": {"target": "Potassium voltage-gated channel subfamily A member 5 (Homo sapiens) (UniProt P22460)", "sequence (P22460 whole entry)": "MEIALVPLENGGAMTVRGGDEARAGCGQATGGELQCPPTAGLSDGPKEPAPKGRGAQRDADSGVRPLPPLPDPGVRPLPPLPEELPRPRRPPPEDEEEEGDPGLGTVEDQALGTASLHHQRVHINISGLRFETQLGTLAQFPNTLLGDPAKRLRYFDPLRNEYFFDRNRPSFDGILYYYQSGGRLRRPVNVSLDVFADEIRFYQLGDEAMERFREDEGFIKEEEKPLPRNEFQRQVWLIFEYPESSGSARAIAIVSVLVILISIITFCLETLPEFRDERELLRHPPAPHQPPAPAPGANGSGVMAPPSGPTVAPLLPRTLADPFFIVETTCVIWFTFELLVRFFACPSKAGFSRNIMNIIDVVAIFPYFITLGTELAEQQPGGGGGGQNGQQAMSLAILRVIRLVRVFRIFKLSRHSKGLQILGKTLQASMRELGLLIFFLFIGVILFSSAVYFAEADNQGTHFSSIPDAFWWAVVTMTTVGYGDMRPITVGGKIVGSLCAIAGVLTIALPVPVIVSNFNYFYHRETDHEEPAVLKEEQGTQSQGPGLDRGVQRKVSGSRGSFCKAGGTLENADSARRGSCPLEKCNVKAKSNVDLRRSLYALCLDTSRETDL", "assay": "Inhibition of Kv1.5 in human atrial myocytes assessed as decrease in ultra rapidly activating delayed rectifier potassium current amplitude at 40 mV by whole cell patch clamp method", "assay_type": "cell-based"}, "[8]": {"assay": "Effect on resting membrane potential in human atrial myocytes at 5 to 10 uM by whole cell patch clamp method", "assay_type": "cell-based", "settings": "cardiac muscle cell"}, "Heart [9]": {"system": "Heart", "assay": "Effect on QTc interval in New Zealand white rabbit heart under hypokalemic conditions at 30 uM by electrocardiogram (reference value: 304.5 to 340.1 ms)", "assay_type": "ADME, Oryctolagus cuniculus"}, "[10]": {"target": "T1, Voltage-gated potassium channel, IKs; KCNQ1(Kv7.1)/KCNE1(MinK)", "assay": "Inhibition of human KCNQ1/KCNE1 expressed in HEK293 cells assessed as decrease in current amplitude at +20 to +60 mV by whole cell patch clamp method", "assay_type": "cell-based"}, "Canis familiaris [11]": {"system": "Canis familiaris", "assay": "Anti-atrial fibrillation activity in bilateral vagal stimulated anesthetized dog assessed as time duration of atrial fibrillation at 100 ms of basic cycle length at 10 mg/kg administered intraduodenally", "assay_type": "functional, Canis lupus familiaris"}, "Mus musculus [12]": {"system": "Mus musculus", "assay": "Acute toxicity in Kunming mouse assessed as abnormal activity at 0.3 g/kg, po administered every 1.5 hrs for 3 times measured for 2 weeks relative to vehicle-treated control", "assay_type": "organism-based", "settings": "in vivo, 300 mg/kg, 336 h"}, "Cardiac muscle cell [13]": {"system": "Cardiac muscle cell", "assay": "Increase in action potential duration at 75% repolarization in human atrial myocytes at 0.5 to 2 Hz at 10 uM by whole cell patch clamp method", "assay_type": "functional, cell-based"}, "Canis familiaris [14]": {"system": "Canis familiaris", "assay": "Induction of QTc interval prolongation in anesthetized dog at 5 mg/kg administered intraduodenally after 1 to 4 hrs", "assay_type": "organism-based, Canis lupus familiaris", "settings": "in vivo, other"}, "[15]": {"assay": "Effect on amplitude of action potential in human atrial myocytes at 5 to 10 uM by whole cell patch clamp method", "assay_type": "cell-based", "settings": "cardiac muscle cell"}, "[16]": {"target": "T1, Voltage-gated potassium channel, IKs; KCNQ1(Kv7.1)/KCNE1(MinK)", "assay": "Inhibition of human KCNQ1/KCNE1 expressed in HEK293 cells assessed as recovery of current amplitude at 30 uM measured after compound washout by whole cell patch clamp method", "assay_type": "cell-based", "set-up": "scale not given: the % may be the effect or the level left", "settings": "hek293, 30 µM"}, "Cavia porcellus": {"organism": "Cavia porcellus", "assay": "Inhibition of acetylcholine-activated potassium channel in guinea pig atrial myocytes assessed as reversal of carbachol-induced membrane conductance at 3 uM by whole cell patch clamp method", "assay_type": "cell-based"}, "[17]": {"target": "Potassium voltage-gated channel subfamily A member 5 (Homo sapiens) (UniProt P22460)", "assay": "Inhibition of Kv1.5 in human atrial myocytes assessed as decrease in ultra rapidly activating delayed rectifier potassium tail and step current amplitude at 3 to 30 uM by whole cell patch clamp method", "assay_type": "cell-based"}, "Heart [18]": {"system": "Heart", "assay": "Effect on heart rate in New Zealand white rabbit heart under hypokalemic conditions at 30 uM by electrocardiogram (reference value: 157 to 175 /min)", "assay_type": "ADME, tissue-based, Oryctolagus cuniculus"}, "Canis familiaris [19]": {"system": "Canis familiaris", "assay": "Anti-atrial fibrillation activity in anesthetized dog assessed as prolongation of effective refractory time period of left atrium at 200 to 250 ms of basic cycle length at 5 mg/kg administered intraduodenally measured after 1 to 4 hrs relative to vehicle-treated control", "assay_type": "functional, Canis lupus familiaris"}, "[20]": {"target": "Voltage-gated inwardly rectifying potassium channel KCNH2 (Homo sapiens, UniProt Q12809)", "sequence (Q12809 whole entry)": "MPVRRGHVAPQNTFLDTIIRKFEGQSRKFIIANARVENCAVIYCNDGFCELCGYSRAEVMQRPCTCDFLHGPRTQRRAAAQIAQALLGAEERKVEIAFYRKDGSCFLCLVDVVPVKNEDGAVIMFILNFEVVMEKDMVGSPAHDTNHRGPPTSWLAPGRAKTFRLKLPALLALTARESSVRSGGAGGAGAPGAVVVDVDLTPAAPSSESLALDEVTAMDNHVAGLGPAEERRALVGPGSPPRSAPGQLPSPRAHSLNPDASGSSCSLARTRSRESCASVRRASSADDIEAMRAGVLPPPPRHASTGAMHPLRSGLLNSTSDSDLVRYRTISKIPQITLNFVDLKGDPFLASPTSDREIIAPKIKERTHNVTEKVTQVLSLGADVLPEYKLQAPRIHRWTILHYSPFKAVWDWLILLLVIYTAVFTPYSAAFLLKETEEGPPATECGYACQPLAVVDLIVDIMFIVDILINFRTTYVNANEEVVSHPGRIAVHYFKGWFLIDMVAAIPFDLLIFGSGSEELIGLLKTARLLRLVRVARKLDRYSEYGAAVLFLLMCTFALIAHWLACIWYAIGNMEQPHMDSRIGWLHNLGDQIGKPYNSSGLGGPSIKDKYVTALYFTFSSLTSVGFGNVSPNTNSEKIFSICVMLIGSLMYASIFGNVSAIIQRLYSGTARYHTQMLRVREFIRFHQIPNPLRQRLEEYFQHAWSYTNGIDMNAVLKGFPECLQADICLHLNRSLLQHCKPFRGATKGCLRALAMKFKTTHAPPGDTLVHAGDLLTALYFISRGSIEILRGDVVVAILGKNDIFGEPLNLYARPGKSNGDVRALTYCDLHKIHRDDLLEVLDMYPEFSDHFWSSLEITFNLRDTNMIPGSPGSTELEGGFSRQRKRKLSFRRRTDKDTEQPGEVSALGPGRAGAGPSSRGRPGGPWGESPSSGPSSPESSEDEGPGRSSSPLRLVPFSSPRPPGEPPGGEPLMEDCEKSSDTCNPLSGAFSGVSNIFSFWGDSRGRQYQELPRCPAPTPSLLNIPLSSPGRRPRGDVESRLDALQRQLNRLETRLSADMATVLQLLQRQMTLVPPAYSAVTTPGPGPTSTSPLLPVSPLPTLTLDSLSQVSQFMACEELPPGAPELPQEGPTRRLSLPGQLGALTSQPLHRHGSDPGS", "assay": "Inhibition of human ERG expressed in HEK293 cells assessed as decrease in current amplitude at 30 uM by whole cell patch clamp method", "assay_type": "cell-based", "settings": "hek293, 30 µM"}, "Canis familiaris [21]": {"system": "Canis familiaris", "assay": "Anti-atrial fibrillation activity in bilateral vagal stimulated anesthetized dog assessed as time duration of atrial fibrillation at 100 ms of basic cycle length at 5 mg/kg administered intraduodenally measured after 2 hrs", "assay_type": "functional, Canis lupus familiaris"}, "Cardiac muscle cell [22]": {"system": "Cardiac muscle cell", "assay": "Increase in action potential duration at 50% repolarization in human atrial myocytes at 0.5 to 2 Hz at 10 uM by whole cell patch clamp method", "assay_type": "functional, cell-based"}, "[23]": {"target": "Potassium voltage-gated channel subfamily A member 5 (Homo sapiens) (UniProt P22460)", "assay": "Inhibition of Kv1.5 in human atrial myocytes assessed as decrease in ultra rapidly activating delayed rectifier potassium current amplitude at 3 uM after 8 mins by whole cell patch clamp method", "assay_type": "cell-based"}, "[24]": {"target": "T2, A-type voltage-gated potassium channel KCND3 (Homo sapiens, UniProt Q9UK17)", "T2 sequence (Q9UK17 whole entry)": "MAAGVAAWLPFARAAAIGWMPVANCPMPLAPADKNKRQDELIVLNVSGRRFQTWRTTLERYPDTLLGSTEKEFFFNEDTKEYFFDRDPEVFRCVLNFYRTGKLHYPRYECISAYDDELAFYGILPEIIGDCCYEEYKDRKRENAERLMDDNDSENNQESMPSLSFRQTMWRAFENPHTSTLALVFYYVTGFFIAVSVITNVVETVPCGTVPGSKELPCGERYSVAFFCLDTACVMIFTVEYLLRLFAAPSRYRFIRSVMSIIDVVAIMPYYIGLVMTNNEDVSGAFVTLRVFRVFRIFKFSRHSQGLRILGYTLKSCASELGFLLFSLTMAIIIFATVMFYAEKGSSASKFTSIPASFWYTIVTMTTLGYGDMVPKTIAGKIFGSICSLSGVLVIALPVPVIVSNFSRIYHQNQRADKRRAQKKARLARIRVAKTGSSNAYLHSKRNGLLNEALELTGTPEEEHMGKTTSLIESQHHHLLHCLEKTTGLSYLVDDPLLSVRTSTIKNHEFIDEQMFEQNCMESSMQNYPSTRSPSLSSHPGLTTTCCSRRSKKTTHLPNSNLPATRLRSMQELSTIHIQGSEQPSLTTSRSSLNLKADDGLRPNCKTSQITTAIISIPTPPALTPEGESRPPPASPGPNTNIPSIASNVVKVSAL", "assay": "Inhibition of Kv4.3 in human atrial myocytes assessed as decrease in transient outward potassium current amplitude at 3 to 10 uM by whole cell patch clamp method", "assay_type": "cell-based"}, "Mus musculus [25]": {"system": "Mus musculus", "assay": "Acute toxicity in Kunming mouse assessed as mortality at 0.3 g/kg, po administered every 1.5 hrs for 3 times measured for 2 weeks relative to vehicle-treated control", "assay_type": "organism-based", "settings": "in vivo, 300 mg/kg, 336 h"}, "[26]": {"target": "T2, A-type voltage-gated potassium channel KCND3", "assay": "Inhibition of Kv4.3 in human atrial myocytes assessed as recovery time constant of transient outward potassium current amplitude at 10 uM by whole cell patch clamp method (reference value: 102 +/- 12 ms)", "assay_type": "cell-based"}}, "note": "The source made the active and inactive calls. The calls are words filed in the database; no cut-off is given here."}
{"smiles": "Nc1ccncc1", "values": [{"measurement": "Activity", "setting": "Cardiac muscle cell [1]", "value": "Active"}, {"measurement": "Activity", "setting": "Cardiac muscle cell [2]", "value": "Active"}, {"measurement": "Activity", "setting": "Cardiac muscle cell [3]", "value": "Active"}]}
{"smiles": "COc1ccc(-c2cc(=O)c3c(O)cc(O)cc3o2)cc1", "note": "[ACACETIN]", "values": [{"measurement": "Activity", "setting": "Cardiac muscle cell [4]", "value": "Active"}, {"measurement": "inhibition (INH)", "setting": "[5]", "value": "Active"}, {"measurement": "Activity", "setting": "Cardiac muscle cell [6]", "value": "Active"}, {"measurement": "inhibition", "setting": "[7]", "value": "Dose-dependent effect"}, {"measurement": "Activity", "setting": "[8]", "value": "Non-Toxic"}, {"measurement": "Time", "setting": "Heart [9]", "value": 308.7, "unit": "ms"}, {"measurement": "inhibition (INH)", "setting": "[10]", "value": "Dose-dependent effect"}, {"measurement": "Time", "setting": "Canis familiaris [11]", "value": "4.3 to 7.11", "unit": "min"}, {"measurement": "Activity", "setting": "Mus musculus [12]", "value": "Non-Toxic"}, {"measurement": "Activity", "setting": "Cardiac muscle cell [13]", "value": "Active"}, {"measurement": "Activity", "setting": "Canis familiaris [14]", "value": "Non-Toxic"}, {"measurement": "Activity", "setting": "[15]", "value": "Non-Toxic"}, {"measurement": "Activity", "setting": "[16]", "value": 83, "unit": "%"}, {"measurement": "inhibition", "setting": "Cavia porcellus", "value": "Active"}, {"measurement": "inhibition", "setting": "[17]", "value": "Active"}, {"measurement": "Activity", "setting": "Heart [18]", "value": 156, "unit": "bpm"}, {"measurement": "Activity", "setting": "Canis familiaris [19]", "value": "10 - 25%"}, {"measurement": "inhibition (INH)", "setting": "[20]", "value": "Active"}, {"measurement": "Time", "setting": "Canis familiaris [21]", "value": "5.31 to 6.12", "unit": "min"}, {"measurement": "Activity", "setting": "Cardiac muscle cell [22]", "value": "Active"}, {"measurement": "inhibition", "setting": "[23]", "value": "Active"}, {"measurement": "inhibition (INH)", "setting": "[24]", "value": "Active"}, {"measurement": "Activity", "setting": "Mus musculus [25]", "value": "Non-Toxic"}, {"measurement": "Time", "setting": "[26]", "value": 136, "unit": "ms"}]}
{"smiles": "CC(C)NCC(O)c1ccc(NS(C)(=O)=O)cc1", "note": "(centres undefined) [SOTALOL]", "values": [{"measurement": "Activity", "setting": "Canis familiaris [14]", "value": "Toxic"}, {"measurement": "Time", "setting": "Canis familiaris [21]", "value": 8.5, "unit": "min"}]}
